Reference: patent publication US12049460B2, “EGFR inhibitor compounds” (Recurium IP Holdings, LLC, priority 2016, dated 2024)

Experiments:
H1975 = conditions: read-out: H1975 Cell IC50; cited from earlier work
hepatocytes = test: Metabolite identification in hepatocytes, human; assay type: in vitro ADME; conditions: 10 μM, 240 min, formation of AZ5104 via de-alkylation on the indole ring
Experimental: Suspended hepatocytes in enough incubation medium to yield ˜1.5×10^6 cells/mL. Pipetted 199 μL of viable hepatocytes or the boiled hepatocytes into each wells of a 96-well non-coated plate. Placed the plate in the incubator on an orbital shaker to allow the hepatocytes to warm for 10 minutes. Pipetted 1 μL of the 2 mM test compound(s) into respective wells of the 96-well non-coated plate to start the reaction with final concentration of 10 μM. Returned the plate to the incubator and placed on an orbital shaker. Incubated at 37° C., 5% CO2 and 90-95% relative humidity with shaking at 500 rpm on the shaker for 240 min. After incubation, transferred media from each well to a tube containing 400 μL cold methanol, washed the well with 200 μL cold methanol and then transferred the media to the corresponding tube. Centrifuged tubes for 10 minutes at 16,000 g. Aliquots of 200 μL of the supernatants were mixed with 200 μL of pure water and used for LC-MS/MS analysis. UHPLC-MS/MS analysis was conducted using a Dionex UltiMate 3000 UHPLC system (Thermo Fisher Scientific, USA) and Thermo Scientific Q Exactive (Thermo Fisher Scientific, USA) fitted with a HESI probe. […]

[1] = observed with AZD9291 treatment; cited from earlier work
EGFR (T790M/L858R) = target: T1, EGFR (T790M/L858R) (Homo sapiens, UniProt P00533, L858R/T790M); test: EGFR biochemical enzyme assay (CisBio HTRF KinEASE TK); conditions: 30 μM ATP in substrate mix, 50 mins incubation
T1 construct: with amino acids 696-end containing the T790M and L858R mutations; GST (N); purchased Millipore
Experimental: (§1) The inhibitory activity of a compound against EGFR (T790M/L858R) were determined with CisBio HTRF (homogenous time-resolved fluorescence) KinEASE TK (#62TKOPEC). The enzyme reaction contained recombinant N-terminal GST-tagged human EGFR (T790M/L858R), which phosphorylates the HTRF tyrosine kinase biotinylated substrate.
(§2) The sequence of the substrate is proprietary to CisBio. Test compounds were serially diluted in 100% (v/v) DMSO before being acoustically dispensed from an Echo 555 (Labcyte) into black Corning 1536-well assay plates. Kinase activity assays were performed in a total reaction volume of 3 μL per well. A 1.5 μL enzyme reaction consisted of 1.6 nM EGFR ([…], L858R), 1 mM DTT, and 10 mM MgCl2. A 1.5 μL substrate mix consisted of 1 μM TK substrate, 30 μM ATP, 1 mM DTT, and 10 mM MgCl2. Following a 50 mins incubation, 3 μL of stop mix was added, which consisted of 250 nM Strep-XL665 and TK Ab-Cryptate diluted in kit detection buffer. The plates were incubated for 1 h before being read on Pherastar using standard HTRF settings. N-terminal GST-tagged recombinant human EGF receptor, with amino acids 696-end containing the T790M and L858R mutations, was obtained from Millipore.

INSR = INSR (Homo sapiens, UniProt P06213); test: Biochemical enzyme assay, INSR
H1975 (L858R/T790M) = test: EGFR cell proliferation assay (CellTiter-Glo), H1975; assay type: cell-based; conditions: Homo sapiens, NCI-H1975, 3-5 days of compound treatment
Experimental: (§3) Cell Lines: A431 (WT), H1975 (L858R/T790M), PC9 (E746-A750 deletion): A431 cells were grown in DMEM (Invitrogen, Carlsbad, CA) supplemented with 10% FBS (HyClone, South Logan, UT) and 1% Penicillin-Streptomycin (P/S, Lonza, Walkersville, MD). H1975 cells were grown in RPMI 1640 (Invitrogen) supplemented with 10% FBS and 1% P/S. […] PC-9 cells were obtained from Japan. All cells were maintained and propagated as monolayer cultures at 37° C. in a humidified 5% CO2 incubator. All cells were cultured according to recommendations.
(§4) Cell proliferation was measured using the CellTiter-Glo® Luminescent Cell Viability Assay. The assay involved the addition of a single reagent (CellTiter-Glo® Reagent) directly to cells cultured in serum-supplemented medium. The assay used a one-step addition to induce cell lysis and generate a luminescent signal proportional to the amount of ATP present, which is directly proportional to the number of metabolically active cells present in culture.
(§5) Each compound evaluated was prepared as a DMSO stock solution (10 mM). Compounds were tested in duplicate on each plate, with an 11-point serial dilution curve (1:3 dilution). Compound treatment (50 μL) was added from the compound dilution plate to the cell plate. The highest compound concentration was 1 or 10 μM (final), with a 0.3% final DMSO (#D-5879, Sigma, St Louis, MO) concentration. Plates were then incubated at 37° C., 5% CO2. After 3-5 days of compound treatment, CellTiter-Glo® Reagent (#G7573, Promega, Madison, WI) was prepared in one of two ways. If thawing a frozen aliquot of CellTiter-Glo® Reagent, the aliquot was thawed and equilibrated to RT prior to use while keeping it protected from light. Alternatively, new bottles of CellTiter-Glo® Buffer and CellTiter-Glo® Substrate were thawed and equilibrated to RT prior to use. CellTiter-Glo® Buffer (100 mL) was transferred into the amber bottle containing CellTiter-Glo® Substrate to reconstitute the lyophilized enzyme/substrate mixture, forming the CellTiter-Glo® Reagent. The reconstituted reagent was mixed by gently inverting the contents to obtain a homogeneous solution, and went into solution easily in less than 1 min. Any unused reconstituted CellTiter-Glo® Reagent was immediately aliquoted and frozen at −20° C., and protected from light. Cell plates were equilibrated at RT for approximately 30 mins. An equi-volume amount of CellTiter-Glo® Reagent (100 μL) was added to each well. Plates were mixed for 2 mins on an orbital shaker to induce cell lysis, and then were allowed to incubate at RT for 10 mins to stabilize the luminescent signal. Luminescence was recorded using the PerkinElmer EnVision Excite Multilabel Reader used for endpoint reading for luminescence detection (Waltham, MA). Data was analyzed using a four-parameter fit in Microsoft Excel.

IGF1R = IGF1R (Homo sapiens, UniProt P08069); test: Biochemical enzyme assay, IGF1R
PC9 (E746-A750 deletion) = test: EGFR cell proliferation assay (CellTiter-Glo), PC9; assay type: cell-based; conditions: 3-5 days of compound treatment
Experimental: as §3, §4, §5

EGFR L858R = EGFR L858R (Homo sapiens, UniProt P00533, L858R); test: EGFR biochemical enzyme assay, L858R
Experimental: [The source words this procedure for another variant and reports this variant under the same test.] as §1, §2

EGFR Wt = EGFR Wt (Homo sapiens, UniProt P00533); test: EGFR biochemical enzyme assay, Wt
Experimental: [The source words this procedure for another variant and reports this variant under the same test.] as §1, §2

A431 (WT) = test: EGFR cell proliferation assay (CellTiter-Glo), A431; assay type: cell-based; conditions: Homo sapiens, A-431, 3-5 days of compound treatment
Experimental: as §3, §4, §5

EGFR Del-19 = target: T2, EGFR Del-19 (Homo sapiens, UniProt P00533); test: EGFR biochemical enzyme assay, Del-19
T2 construct: as for the T790M/L858R enzyme of the same protocol
Experimental: [The source words this procedure for another variant and reports this variant under the same test.] as §1, §2

T2 sequence (P00533 with tags, fused parts or gaps DEL746-750): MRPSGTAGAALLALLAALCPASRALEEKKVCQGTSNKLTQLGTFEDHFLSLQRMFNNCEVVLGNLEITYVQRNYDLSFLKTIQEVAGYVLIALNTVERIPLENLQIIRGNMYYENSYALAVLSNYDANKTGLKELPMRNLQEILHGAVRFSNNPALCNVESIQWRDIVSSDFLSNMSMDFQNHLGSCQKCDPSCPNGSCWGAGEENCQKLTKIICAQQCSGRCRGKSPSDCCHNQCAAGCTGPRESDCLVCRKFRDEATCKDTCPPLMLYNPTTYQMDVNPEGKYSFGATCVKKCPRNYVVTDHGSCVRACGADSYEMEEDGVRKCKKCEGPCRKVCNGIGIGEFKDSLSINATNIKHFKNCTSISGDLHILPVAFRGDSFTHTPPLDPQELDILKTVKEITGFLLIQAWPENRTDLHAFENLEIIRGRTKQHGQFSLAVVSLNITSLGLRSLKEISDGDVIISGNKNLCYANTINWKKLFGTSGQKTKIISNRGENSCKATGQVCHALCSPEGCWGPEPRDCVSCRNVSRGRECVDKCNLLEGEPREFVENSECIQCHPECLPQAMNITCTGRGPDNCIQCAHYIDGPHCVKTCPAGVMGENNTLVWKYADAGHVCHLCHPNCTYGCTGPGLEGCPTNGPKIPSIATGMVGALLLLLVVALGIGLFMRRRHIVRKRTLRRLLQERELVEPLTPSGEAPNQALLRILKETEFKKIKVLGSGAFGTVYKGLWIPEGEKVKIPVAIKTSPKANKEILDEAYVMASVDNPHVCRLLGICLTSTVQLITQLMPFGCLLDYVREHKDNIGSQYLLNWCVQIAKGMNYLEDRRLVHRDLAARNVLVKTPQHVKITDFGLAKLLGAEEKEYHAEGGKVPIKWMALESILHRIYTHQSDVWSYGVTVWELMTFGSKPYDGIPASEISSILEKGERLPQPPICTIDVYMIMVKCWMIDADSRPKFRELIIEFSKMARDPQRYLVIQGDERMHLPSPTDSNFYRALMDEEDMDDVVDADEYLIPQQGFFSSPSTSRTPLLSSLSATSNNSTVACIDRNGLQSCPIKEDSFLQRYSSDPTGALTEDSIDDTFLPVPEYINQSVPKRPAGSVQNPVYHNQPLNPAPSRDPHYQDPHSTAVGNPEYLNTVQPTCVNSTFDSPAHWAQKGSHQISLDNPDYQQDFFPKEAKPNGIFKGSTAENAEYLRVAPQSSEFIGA
T1 sequence (P00533 696-1210 T790M/L858R): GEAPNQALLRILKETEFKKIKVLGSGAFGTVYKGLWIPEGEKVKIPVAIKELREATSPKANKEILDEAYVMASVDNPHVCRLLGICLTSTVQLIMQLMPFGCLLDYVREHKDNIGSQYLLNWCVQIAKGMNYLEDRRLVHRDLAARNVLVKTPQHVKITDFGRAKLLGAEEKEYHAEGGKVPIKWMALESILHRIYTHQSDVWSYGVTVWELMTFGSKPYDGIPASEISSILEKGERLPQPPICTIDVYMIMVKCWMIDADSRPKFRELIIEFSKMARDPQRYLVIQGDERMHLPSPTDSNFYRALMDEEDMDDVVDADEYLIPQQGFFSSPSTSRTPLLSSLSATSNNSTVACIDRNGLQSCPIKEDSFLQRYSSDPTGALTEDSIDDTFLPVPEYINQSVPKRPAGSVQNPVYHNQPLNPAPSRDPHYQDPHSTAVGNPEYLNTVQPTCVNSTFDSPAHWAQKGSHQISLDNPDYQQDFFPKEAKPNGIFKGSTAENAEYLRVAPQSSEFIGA
Sequence of IGF1R (P08069 31-1367, species assumed): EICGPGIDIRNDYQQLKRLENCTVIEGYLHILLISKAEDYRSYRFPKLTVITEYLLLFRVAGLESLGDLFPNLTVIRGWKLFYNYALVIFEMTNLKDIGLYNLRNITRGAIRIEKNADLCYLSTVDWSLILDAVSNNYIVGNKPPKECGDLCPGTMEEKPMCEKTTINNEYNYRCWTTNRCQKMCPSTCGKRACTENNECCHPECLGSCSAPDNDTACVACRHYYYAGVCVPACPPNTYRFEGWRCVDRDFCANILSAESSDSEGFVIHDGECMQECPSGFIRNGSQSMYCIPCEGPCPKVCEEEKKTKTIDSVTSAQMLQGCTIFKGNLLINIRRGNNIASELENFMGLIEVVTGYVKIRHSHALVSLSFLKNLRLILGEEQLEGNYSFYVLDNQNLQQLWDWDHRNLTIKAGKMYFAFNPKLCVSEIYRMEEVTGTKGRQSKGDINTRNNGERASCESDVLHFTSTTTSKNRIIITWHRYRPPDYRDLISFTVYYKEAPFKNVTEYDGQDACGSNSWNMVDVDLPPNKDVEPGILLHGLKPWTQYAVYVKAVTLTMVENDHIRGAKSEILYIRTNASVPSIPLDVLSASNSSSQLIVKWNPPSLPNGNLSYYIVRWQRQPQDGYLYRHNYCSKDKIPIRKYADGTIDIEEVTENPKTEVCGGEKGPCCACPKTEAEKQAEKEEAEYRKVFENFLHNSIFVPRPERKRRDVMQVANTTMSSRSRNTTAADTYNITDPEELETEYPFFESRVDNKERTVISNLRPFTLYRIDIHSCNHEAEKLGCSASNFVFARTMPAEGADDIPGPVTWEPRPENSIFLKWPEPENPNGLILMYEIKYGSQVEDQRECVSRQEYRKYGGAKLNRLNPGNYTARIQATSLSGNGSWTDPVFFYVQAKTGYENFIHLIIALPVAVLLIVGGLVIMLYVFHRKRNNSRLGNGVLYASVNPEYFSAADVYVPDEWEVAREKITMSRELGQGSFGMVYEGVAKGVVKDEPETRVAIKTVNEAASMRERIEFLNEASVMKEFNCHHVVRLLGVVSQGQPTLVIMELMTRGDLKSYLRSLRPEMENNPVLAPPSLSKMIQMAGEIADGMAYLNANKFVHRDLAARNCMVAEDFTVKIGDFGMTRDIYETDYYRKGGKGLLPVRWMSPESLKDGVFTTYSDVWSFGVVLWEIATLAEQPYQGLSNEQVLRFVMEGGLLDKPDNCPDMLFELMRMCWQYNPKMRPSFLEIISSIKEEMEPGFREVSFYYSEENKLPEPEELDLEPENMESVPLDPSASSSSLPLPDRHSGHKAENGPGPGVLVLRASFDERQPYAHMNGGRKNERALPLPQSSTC
Sequence of EGFR L858R (P00533 25-1210 L858R): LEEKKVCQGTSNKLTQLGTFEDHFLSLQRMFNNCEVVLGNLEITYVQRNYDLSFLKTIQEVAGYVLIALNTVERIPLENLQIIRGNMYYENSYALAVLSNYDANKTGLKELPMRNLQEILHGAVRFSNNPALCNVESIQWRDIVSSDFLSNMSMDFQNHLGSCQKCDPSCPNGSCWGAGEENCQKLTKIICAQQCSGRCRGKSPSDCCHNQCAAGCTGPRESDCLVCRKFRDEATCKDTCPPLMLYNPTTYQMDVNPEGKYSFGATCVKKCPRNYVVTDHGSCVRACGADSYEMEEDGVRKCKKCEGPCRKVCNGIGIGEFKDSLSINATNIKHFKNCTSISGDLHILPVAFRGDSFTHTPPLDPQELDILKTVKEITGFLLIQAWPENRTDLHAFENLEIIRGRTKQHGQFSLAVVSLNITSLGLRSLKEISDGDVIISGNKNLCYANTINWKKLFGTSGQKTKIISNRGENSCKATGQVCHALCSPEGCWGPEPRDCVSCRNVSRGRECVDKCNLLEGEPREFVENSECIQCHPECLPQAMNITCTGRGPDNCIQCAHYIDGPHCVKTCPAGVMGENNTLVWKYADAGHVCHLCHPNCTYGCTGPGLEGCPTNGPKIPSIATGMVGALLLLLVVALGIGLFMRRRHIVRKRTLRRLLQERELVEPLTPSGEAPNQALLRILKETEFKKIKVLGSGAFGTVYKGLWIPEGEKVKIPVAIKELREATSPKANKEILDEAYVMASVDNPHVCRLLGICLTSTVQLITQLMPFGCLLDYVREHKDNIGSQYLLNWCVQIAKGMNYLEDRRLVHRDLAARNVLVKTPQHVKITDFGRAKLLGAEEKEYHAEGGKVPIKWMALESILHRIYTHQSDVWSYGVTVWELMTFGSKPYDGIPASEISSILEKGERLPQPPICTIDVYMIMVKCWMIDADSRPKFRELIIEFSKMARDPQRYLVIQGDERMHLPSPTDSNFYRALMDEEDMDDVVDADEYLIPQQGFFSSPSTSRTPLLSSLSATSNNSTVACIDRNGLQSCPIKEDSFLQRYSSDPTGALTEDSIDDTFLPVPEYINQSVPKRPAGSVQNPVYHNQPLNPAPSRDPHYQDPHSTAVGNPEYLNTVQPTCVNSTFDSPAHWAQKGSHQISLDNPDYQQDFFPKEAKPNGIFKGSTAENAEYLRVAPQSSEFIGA

Row | SMILES | Metabolite AZ5104, Human (hepatocytes) | IC50 (EGFR (T790M/L858R)) [nM] | IC50 (INSR) [nM] | IC50 (H1975 (L858R/T790M)) [nM] | IC50 (IGF1R) [nM] | IC50 (PC9 (E746-A750 deletion)) [nM] | IC50 (EGFR L858R) [nM] | IC50 (EGFR Wt) [nM] | IC50 (A431 (WT)) [nM] | IC50 (EGFR Del-19) [nM] | IC50 (H1975) [nM] | clinical side effect: diarrhea [1] [%] | clinical side effect: rash [1] [%]
1 | C=CC(=O)Nc1cc(Nc2nccc(-c3c[nH]c4ccccc34)n2)c(OC)cc1N(C)CCN(C)C [AZ5104] | – | – | – | – | – | – | – | – | – | – | 2 | – | –
2 | C=CC(=O)Nc1cc(Nc2nccc(-c3cn(C)c4ccccc34)n2)c(OC)cc1N(C)CCN(C)C [AZD9291] | Observed | – | – | – | – | – | – | – | – | – | 15 | 42 | 41
3 | C=CC(=O)Nc1cc(Nc2nccc(-c3cn(C)c4ccccc34)n2)c(OC)cc1N(C)C12CC(CN(C)C)(C1)C2 [Example 4, N-(2-((3-((dimethylamino)methyl)bicyclo[1.1.1]pentan-1-yl)(methyl)amino)-4-methoxy-5-((4-(1-methyl-1H-indol-3-yl)pyrimidin-2-yl)amino)phenyl)acrylamide] | – | ≥ 100 | ≥ 100 | ≥ 300 | ≥ 100 | ≥ 300 | – | 10 to 100 | ≥ 300 | ≥ 100 | – | – | –
4 | C=CC(=O)Nc1cc(Nc2nccc(-c3cn(C)c4ccccc34)n2)c(OC)cc1N(C)C12CC(N(C)C)(C1)C2 [Example 6, N-(2-((3-(dimethylamino)bicyclo[1.1.1]pentan-1-yl)(methyl)amino)-4-methoxy-5-((4-(1-methyl-1H-indol-3-yl)pyrimidin-2-yl)amino)phenyl)acrylamide] | – | ≤ 10 | ≥ 100 | ≥ 300 | ≥ 100 | ≥ 300 | ≥ 100 | ≥ 100 | ≥ 300 | ≥ 100 | – | – | –
5 | C=CC(=O)Nc1cc(Nc2nccc(-c3cn(C45CC(F)(C4)C5)c4ccccc34)n2)c(OC)cc1N(C)CCN(C)C [Example 7, N-(2-((2-(dimethylamino)ethyl)(methyl)amino)-5-((4-(1-(3-fluorobicyclo[1.1.1]pentan-1-yl)-1H-indol-3-yl)pyrimidin-2-yl)amino)-4-methoxyphenyl)acrylamide] | – | ≤ 10 | – | ≤ 50 | – | ≥ 300 | ≤ 10 | ≤ 10 | ≥ 300 | ≤ 10 | – | – | –
6 | C=CC(=O)Nc1cc(Nc2nccc(-c3cn(C45CC(C4)C5)c4ccccc34)n2)c(OC)cc1N(C)CCNC [Example 8, N-(5-((4-(1-(Bicyclo[1.1.1]pentan-1-yl)-1H-indol-3-yl)pyrimidin-2-yl)amino)-4-methoxy-2-(methyl(2-(methylamino)ethyl)amino)phenyl)acrylamide] | – | ≤ 10 | ≥ 100 | ≤ 50 | ≥ 100 | ≤ 50 | – | 10 to 100 | ≥ 300 | ≤ 10 | – | – | –

Continued, in another order:

Row | Metabolite AZ5104, Human (hepatocytes) | IC50 (EGFR (T790M/L858R)) [nM] | IC50 (INSR) [nM] | IC50 (H1975 (L858R/T790M)) [nM] | IC50 (IGF1R) [nM] | IC50 (PC9 (E746-A750 deletion)) [nM] | IC50 (EGFR L858R) [nM] | IC50 (EGFR Wt) [nM] | IC50 (A431 (WT)) [nM] | IC50 (EGFR Del-19) [nM] | SMILES | IC50 (H1975) [nM] | clinical side effect: diarrhea [1] [%] | clinical side effect: rash [1] [%]
7 | did not lead to the formation | ≤ 10 | ≥ 100 | ≤ 50 | ≥ 100 | ≤ 50 | ≤ 10 | ≤ 10 | ≥ 300 | ≤ 10 | C=CC(=O)Nc1cc(Nc2nccc(-c3cn(C45CC(C4)C5)c4ccccc34)n2)c(OC)cc1N(C)CCN(C)C [Example 1, N-(5-((4-(1-(bicyclo[1.1.1]pentan-1-yl)-1H-indol-3-yl)pyrimidin-2-yl)amino)-2-((2-(dimethylamino)ethyl)(methyl)amino)-4-methoxyphenyl)acrylamide] | – | – | –
8 | – | ≤ 10 | ≥ 100 | 50 to 300 | ≥ 100 | 50 to 300 | – | ≤ 10 | ≥ 300 | ≤ 10 | C=CC(=O)Nc1cc(Nc2nccc(-c3cn(C45CC(C#N)(C4)C5)c4ccccc34)n2)c(OC)cc1N(C)CCN(C)C [Example 2, N-(5-((4-(1-(3-cyanobicyclo[1.1.1]pentan-1-yl)-1H-indol-3-yl)pyrimidin-2-yl)amino)-2-((2-(dimethylamino)ethyl)(methyl)amino)-4-methoxyphenyl)acrylamide] | – | – | –
9 | – | ≤ 10 | ≥ 100 | ≤ 50 | ≥ 100 | ≤ 50 | – | ≤ 10 | 50 to 300 | ≤ 10 | C=CC(=O)Nc1cc(Nc2ncc(C#N)c(-c3cn(C45CC(C4)C5)c4ccccc34)n2)c(OC)cc1N(C)CCN(C)C [Example 3, N-(5-((4-(1-(bicyclo[1.1.1]pentan-1-yl)-1H-indol-3-yl)-5-cyanopyrimidin-2-yl)amino)-2-((2-(dimethylamino)ethyl)(methyl)amino)-4-methoxyphenyl)acrylamide] | – | – | –
10 | – | ≤ 10 | ≥ 100 | ≤ 50 | ≥ 100 | 50 to 300 | – | ≤ 10 | ≥ 300 | ≤ 10 | C=CC(=O)Nc1cc(Nc2nccc(-c3nn(C45CC(C4)C5)c4ccccc34)n2)c(OC)cc1N(C)CCN(C)C [Example 5, N-(5-((4-(1-(bicyclo[1.1.1]pentan-1-yl)-1H-indazol-3-yl)pyrimidin-2-yl)amino)-2-((2-(dimethylamino)ethyl)(methyl)amino)-4-methoxyphenyl)acrylamide] | – | – | –
